How the values were obtained:
[1] = Rate measurements of cycloaddition of acetylenes with azides by UV spectroscopy in methanol; type: physicochemical; conditions: 25±0.1° C.
Description: The rate measurements of cycloaddition of acetylenes 6c and 4a were conducted by UV spectroscopy at 25±0.1° C. A calculated amount of 0.25 M solutions of an azide required to achieve desired azide concentration (6×10^−4-1.5×10^−2 M) was added to a thermally equilibrated ca. 6×10^−5 M solution of acetylene in MeOH. Reactions were monitored by following the decay of the characteristic absorbance of acetylenes ca. 317 nm (FIG. 6). Consumption of starting material followed a first order equation well and the pseudo-first order rate constants were obtained by the by least-squares fitting of the data to a single exponential equation. The dependence of the observed rates on the concentration of azides was linear.
The rate measurements of the cycloaddition reaction of acetylene 6c with azides was conducted by UV spectroscopy following the decay of the 317 nm band of 6c (as shown in FIG. 6) in the photolysate at various concentrations of azides from about 0.5 mM to about 20 mM). […]
Rate measurements were performed using Carry-300 Bio UV-Vis spectrometer equipped with a thermostatable cell holder. […] A calculated amount of 0.25 M solutions of an azide required to achieve desired azide concentration (6×10^−4−1.5×10^−2M) was added at once. Reactions were monitored by following the decay of the characteristic absorbance of acetylene 6c at approximately 317 nm (FIG. 6). […]

[2] = Stability of cyclopropenones (shelf life, elevated temperature, solution); type: physicochemical; conditions: 3 days at 40° C. in aqueous and methanol solutions
From the text: Diphenyl cyclopropenones, such as 5a-c, 18a-c, and 19, had long shelf lives, and could withstand elevated temperatures. […] (Poloukhtine & Popik (2003) J. Org. Chem. 68: 7833-7840). The cyclopropenones are also stable in solution in the absence of light.

| Compound | Bimolecular rate constant, Rate ([1]; 1-phenyl-2-azidopropane) | Bimolecular rate constant, Rate ([1]; n-butyl azide) | Decomposition in solution in the absence of light [2] |
| --- | --- | --- | --- |
| 3,9-Dibutoxy-5,6-didehydro-11,12-dihydrodibenzo[a,e][8]annulen-2-yl [6c] | 0.0343 M⁻¹ s⁻¹ | 0.0586 M⁻¹ s⁻¹ | – |
| CCCCOc1ccc2c(c1)CCc1cc(OCCCC)ccc1-c1c-2c1=O [5c, 4,9-dibutoxy-6,7-dihydro-1H-dibenzo[a,e]cyclopropa[c][8]annulen-1-one] | – | – | no decomposition |

Reference: patent US8426649B2, “Cyclopropenones and the photochemical generation of cyclic alkynes therefrom” (University of Georgia Research Foundation, Inc., priority 2009, dated 2013)
